Data taken from US5714479A, “Endothelin antagonistic heteroaromatic ring-fused cyclopentene derivatives” (Banyu Pharmaceutical Co., Ltd., priority 1993, dated 1998).

Tests used:
human ETB receptor = test: Endothelin binding inhibition test to human ET receptor (ETB); conditions: 1.1 μM; human cell membranes (SK-N-MC or Girardi heart cells)
Method: (§1) Endothelin binding inhibition test to human ET receptor
(§2) The human neuroblastoma SK-N-MC cells or the human Girardi heart cells purchased from Dainippon Seiyaku (Japan) were cultured in minimal essential medium supplemented with fetal calf serum. The cells were collected and homogenized in 10 mM MOPS buffer (pH 7.4) containing 154 mM NaCl, 10 mM KCl, 0.8 mM CaCl2 and 20% sucrose at 4° C. using a polytron homogenizer. The homogenate was then centrifuged at 1,000×gfor 15 minutes. The supernatant was centrifuged at 100,000×g for 1 hour at 4° C. Then the pellet was washed with 5 mM Hepes/Tris buffer (pH 7.4). The resulting membranes were incubated with [^125 I]endothelin-1 in the presence of each test compound or vehicle (1% dimethyl sulfoxide) in 50 mM Tris/HCl buffer (pH 7.4) containing 0.1 mM phenylmethanesulfonyl fluoride, 1 μM pepstatin, 2 μM leupeptin, 1 mM 1,10-phenanthroline, 1 mM EDTA, 10 μM CaCl2, 10 μM MgCl2 and 0.1% BSA in a total volume of 0.4 ml. After 4 hours incubation, cold 5 mM Hepes/Tris buffer (pH 7.4) containing 0.3% BSA (Buffer A) was added to the mixture. Free and bound [^125 I]endothelin-1 were separated by filtration using Whatman GF/C glass fiber filters. After the filtration, the filters were washed with buffer A, and the radioactivity on the filters was measured in a γ counter. Nonspecific binding was determined in the presence of 200 nM endothelin-1. […]

ETA receptor = test: Endothelin binding inhibition test to ETA receptor (porcine aorta smooth muscle membranes, 125I-endothelin-1); conditions: at 1.1 μM
Method: Endothelin binding inhibition test to ETA receptor
(§3) The smooth muscle tissue of porcine aorta was homogenized in a buffer solution of 10 mM MOPS, pH 7.4, at 4° C. by a polytron. To the homogenate, sucrose was added to a concentration of 20%, and the mixture was centrifuged at 1,000×g for 15 minutes, and the supernatant was further centrifuged at 10,000×g for 15 minutes. The supernatant thereof was further centrifuged at 90,000×g for 40 minutes. The membrane precipitate thereby obtained was suspended in a buffer solution of 5 mM HEPES/Tris, pH 7.4, at a concentration of 25 mg/ml.
(§4) Then, 16 μl of this membrane suspension was added to 340 μl of 50 mM tris/HCl buffer, pH 7.4, containing […] calcium chloride, 10 μM magnesium chloride, 0.1 mM PMSF, 1 μM pepstatin A, 2 μM leupeptin, 1 mM 1,10-phenanthroline and 0.1% bovine serum albumin. To this suspension, 4 μl of (A) endothelin-1 (for nonspecific binding; 0.2 μM as the final concentration), (B) buffer solution A (for total control binding), or (C) a test compound (1.1 μM as the final concentration), was added. Further, to each suspension, 40 μl of ^125 I-endothelin-1 (12000-18000 cpm) was added. […] Then, the radioactivity trapped by the glass filter was measured, and the ^125 I-endothelin-1 binding inhibition D (%) at 1.1 μM of the test compound was determined by the following equation. […]

human ETA receptor = test: Endothelin binding inhibition test to human ET receptor (ETA); conditions: 1.1 μM; human cell membranes (SK-N-MC or Girardi heart cells)
Method: as §1, §2

ETB receptor = test: Endothelin binding inhibition test to ETB receptor (porcine cerebellum membranes, 125I-endothelin-1); conditions: at 1.1 μM
Method: Endothelin binding inhibition test to ETB receptor
as §3, with “cerebellum” for “smooth muscle tissue”, “porcine” for “porcine aorta”, “3.3” for “25”
as §4

[1] = system: isolated porcine coronary arteries; test: Activities against endothelin-induced contraction of isolated porcine coronary arteries; parameters: species or system pig
Method: Activities against endothelin-induced contraction of isolated porcine coronary arteries
(§5) The coronary artery of pig was extracted, and a spiral preparation having a width of 1 mm and a length of 10 mm was prepared therefrom. The preparation having the endothelial cells denuded, was hanged in a 5 ml organ bath filled with a Krebs.Heneseleit solution saturated with a gas mixture of 95% O2 and 5% CO2, and a change in the tension was isometrically measured and recorded.
(§6) Endothelin-1 was added into the organ bath in a cumulatively increasing manner, whereby the influence of a compound of the present invention to the concentration-response curve for endothelin-1 was examined. The compound was added into the organ bath 20 minutes prior to the addition of endothelin-1.

[2] = system: isolated rabbit iliac arteries; test: Activities against endothelin-induced contraction of isolated rabbit iliac arteries
Method: Activities against endothelin-induced contraction of isolated rabbit iliac arteries
as §5, with “iliac” for “coronary”, “rabbit” for “pig”, “isolated,” for “extracted,”, “placed” for “hanged”, “Krebs.Henseleit” for “Krebs.Heneseleit”
as §6

[3] = 0.1 to 10 μM, rabbit iliac artery

| SMILES | Percent (%) inhibition of [125I]ET-1 specific binding to ETB (human ETB receptor) [%] | 125I-endothelin-1 binding inhibition D (%) to ETA (ETA receptor) [%] | Percent (%) inhibition of [125I]ET-1 specific binding to ETA (human ETA receptor) [%] | 125I-endothelin-1 binding inhibition D (%) to ETB (ETB receptor) [%] | effect on the isolated artery when applied alone [1] | influence on the concentration-response curve for endothelin-1 ([1]; 10 μM, added 20 minutes prior to endothelin-1, porcine coronary artery) | effect on maximum response to endothelin-1 ([1]; 10 μM, porcine coronary artery) | effect on the isolated artery when applied alone [2] | effect on maximum response to endothelin-1 [2, 3] | influence on the concentration-response curve for endothelin-1 [2, 3] |
| --- | --- | --- | --- | --- | --- | --- | --- | --- | --- | --- |
| COc1ccc([C@H]2c3ncccc3[C@@H](c3ccc4c(c3)OCO4)[C@@H]2C(=O)O)cc1 (relative stereo) [Compound 2-enantiomer A] | 80 | 99 | 99 | 80 |  |  |  |  |  |  |
| COc1ccc([C@H]2c3ncccc3[C@@H](c3ccc4c(c3)OCO4)[C@@H]2C(=O)O)cc1 (relative stereo) [Compound 2, (5RS,6SR,7SR)-6-Carboxy-5-(3,4-methylenedioxyphenyl)-7-(4-methoxyphenyl)cyclopenteno[1,2-b]pyridine] |  |  |  |  | showed no effects to the isolated coronary artery when applied alone | remarkably shifted the concentration-response curves of endothelin-1 to the right | did not affect the maximum response | showed no effects to the isolated iliac artery when applied alone | did not affect the maximum response | remarkably shifted the concentration-response curves of endothelin-1 to the right |
